System: MDCK cells
Experiment: Reversal of in vitro cyst formation in MDCK cells (Experiment 4)
Format: cell-based, canine
Conditions: compound added every 2 days from day 10 to day 20, with forskolin and vasopressin; FIG. 8
Description: In this study, the potential of PDE4 long form activators to reverse the formation of pre-formed cysts was evaluated. The experiment was carried out according to the method of Experiment 3. For the first 10 days, forskolin and vasopressin were added at every feed (every 2 days) but no test compound was added. For the next 10 days, the test compound, forskolin and vasopressin were added at every feed (every 2 days).
Phase-contrast images were obtained on the Motic microscope (×200 magnification) every 2 days for 20 days. Per condition, 10 images were taken (in duplicate) and the average cyst radius measured.

## CCc1nc(-c2ccc(Cl)c(F)c2)nn1CC(=O)NCc1cccc(F)c1 [Example A, N-(3-Fluorobenzyl)-2-[3-(4-chloro-3-fluorophenyl)-5-ethyl-1H-1,2,4-triazol-1-yl]acetamide]
  in vitro cyst formation in MDCK cells, reversal (in words): reversal of in vitro cyst formation
